Experimental findings from patent US9464092B2, “Transient protection of normal cells during chemotherapy” (G1 Therapeutics, Inc., priority 2013, dated 2016) are described below.

In series [1] the test system is HS68 cells (human skin fibroblast cell line (Rb-positive)). The series is described as follows: G1 arrest (cellular G1 and S-phase) assay. Type of series: cell-based. As to the method:
For determination of cellular fractions in various stages of the cell cycle following various treatments, HS68 cells (human skin fibroblast cell line (Rb-positive)) were stained with propidium iodide staining solution and run on Dako Cyan Flow Cytometer. The fraction of cells in G0-G1 DNA cell cycle versus the fraction in S-phase DNA cell cycle was determined using FlowJo 7.2 0.2 analysis.
The compounds listed in Table 1 were tested for their ability to arrest HS68 cells at the G1 phase of the cell cycle.

The next series has as its target CDK2/CyclinE (Homo sapiens (Human), UniProt P24941). The series is described as follows: CDK2/CyclinE kinase assay (Nanosyn, Caliper microfluidic). Type of series: biochemical. Conditions: for IC50: read-out: CDK2/CycE IC50. On the procedure: Selected compounds disclosed herein were tested in CDK4/cyclinD1, CDK6/CycD3 CDK2/CycA and CDK2/cyclinE kinase assays by Nanosyn (Santa Clara, Calif.) to determine their inhibitory effect on these CDKs. The assays were performed using microfluidic kinase detection technology (Caliper Assay Platform). The compounds were tested in 12-point dose-response format in singlicate at Km for ATP. Phosphoacceptor substrate peptide concentration used was 1 μM for all assays and Staurosporine was used as the reference compound for all assays.

A further series deals with CDK4/CyclinD1 (Homo sapiens (Human), UniProt P11802). In words: CDK4/CyclinD1 kinase assay (Nanosyn, Caliper microfluidic). The following applies: Table 2; read-out: CDK4/CycD1 IC50. Type of series: biochemical. As to the method:
(§1) Selected compounds disclosed herein were tested in CDK4/cyclinD1, CDK6/CycD3 CDK2/CycA and CDK2/cyclinE kinase assays by Nanosyn (Santa Clara, Calif.) to determine their inhibitory effect on these CDKs. The assays were performed using microfluidic kinase detection technology (Caliper Assay Platform). The compounds were tested in 12-point dose-response format in singlicate at Km for ATP. Phosphoacceptor substrate peptide concentration used was 1 μM for all assays and Staurosporine was used as the reference compound for all assays. Specifics of each assay are as described below:
CDK4/CyclinD1: Enzyme concentration: 1 nM; ATP concentration: 200 μM; Incubation time: 10 hr.

For the next series, the target named is CDK2/CyclinA (Homo sapiens (Human), UniProt P24941). The series is described as follows: CDK2/CyclinA kinase assay (Nanosyn, Caliper microfluidic). Type of series: biochemical. Conditions: for IC50: read-out: CDK2/CycA IC50. As to the method:
as §1
CDK2/CyclinA: Enzyme concentration: 0.2 nM; ATP concentration: 50 μM; Incubation time: 3 hr.

For the next series, the system named is HSPCs (bone marrow). In words: HSPC proliferation in bone marrow by EdU incorporation after oral gavage. It counts as in vivo, mice. On the procedure: Mice were then sacrificed at the indicated times (0, 12, 24, 36, or 48 hours following compound administration), and bone marrow was harvested (n=3 mice per time point), as previously described (Johnson et al. J. Clin. Invest. (2010) 120(7), 2528-2536). Four hours before the bone marrow was harvested, mice were treated with 100 μg of EdU by intraperitoneal injection (Invitrogen). Bone marrow mononuclear cells were harvested and immunophenotyped using previously described methods and percent EdU positive cells were then determined (Johnson et al. J. Clin. Invest. (2010) 120(7), 2528-2536). In brief, HSPCs were identified by expression of lineage markers (Lin-), Sca1 (S+), and c-Kit (K+).
Four hours before animals were sacrificed and the bone marrow was harvested, mice were treated with 100 μg of EdU by intraperitoneal injection. Three mice per group were sacrificed at 12 hours and the remaining three animals per group were sacrificed at 24 hours. Results are shown in FIG. 6A as the ratio of EdU positive cells for treated animals at 12 or 24 hour time points compared to control.
Further experiments were completed with Compound T examining dose response and longer periods of compound treatment. […] […].
Both compounds were administered at 150 mg/kg by oral gavage. One hour prior to harvesting bone marrow, EdU was IP injected to label cycling cells. Bone marrow was harvested at 12, 24, 36, and 48 hours after compound treatment and the percentage of EdU positive HSPC cells was determined at each time point.

A short description of series [2]: Mouse pharmacokinetics (oral gavage / intravenous). The following applies: for AUC(0-inf) / clearance / Vd: iv, 10 mg/kg i.v.; for Vd: read-out: Vss. Type of series: in vivo, mice.
The mark [3] stands for this setting: mouse, plasma, po, 30 mg/kg, mouse, 30 mg/kg oral gavage, read-out: t1/2 p.o. (converted).
[4] abbreviates: plasma, mouse, 30 mg/kg oral gavage.

Like-named read-outs stand apart in the source and are kept apart here.

The term EC50 denotes the concentration that produces a half-maximal response. Read a low EC50 as an effect from little substance. By AUC(0-inf) is commonly meant total exposure, with the tail of the curve extrapolated. One may read the AUC as concentration integrated over time. A lower AUC goes with low exposure. For orientation: Cmax means the maximum level reached in the sampled fluid or tissue. As usually defined, the Tmax is the time at which the peak concentration occurs. What is called bioavailability is the share of a dose that reaches the circulation, judged against a reference dose that is usually intravenous.

Chain of CDK4/CyclinD1 (P11802 whole entry, species assumed): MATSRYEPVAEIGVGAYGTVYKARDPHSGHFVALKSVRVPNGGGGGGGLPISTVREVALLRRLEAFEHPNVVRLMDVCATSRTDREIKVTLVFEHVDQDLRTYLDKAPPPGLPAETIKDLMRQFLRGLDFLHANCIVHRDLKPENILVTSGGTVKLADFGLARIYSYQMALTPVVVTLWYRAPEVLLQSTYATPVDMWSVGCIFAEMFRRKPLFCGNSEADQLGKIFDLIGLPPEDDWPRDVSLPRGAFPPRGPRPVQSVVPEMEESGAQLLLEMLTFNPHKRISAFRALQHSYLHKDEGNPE
Chain of CDK4/CyclinD1 (P24385 whole entry partner, species assumed): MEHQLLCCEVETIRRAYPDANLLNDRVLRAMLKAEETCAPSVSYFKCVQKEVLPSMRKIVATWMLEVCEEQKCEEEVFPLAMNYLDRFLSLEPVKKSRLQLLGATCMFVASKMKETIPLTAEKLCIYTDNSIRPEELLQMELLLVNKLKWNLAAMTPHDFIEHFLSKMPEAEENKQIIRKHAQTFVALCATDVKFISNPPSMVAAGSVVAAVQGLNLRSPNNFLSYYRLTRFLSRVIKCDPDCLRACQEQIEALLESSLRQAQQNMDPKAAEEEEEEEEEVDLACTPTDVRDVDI

In series [1] (HS68 cells), `CCC(C)CN1CCN(c2ccc(Nc3ncc4cc5n(c4n3)C3(CCCC3)CNC5=O)nc2)CC1` (stereo not drawn) [AAA] came in with an EC50 of 275 nM. At CDK2/CyclinE (Table 2), the “Fold Selectivity (CDK2/CycE/CDK4)” value is 2591 and the IC50 is 6.01 µM. Also, the IC50 on CDK4/CyclinD1 is 2.3 nM. Also, at CDK2/CyclinA (Table 2), the “Fold Selectivity (CDK2/CycA/CDK4)” value was found to be 918 and the IC50 was determined as 2130 nM.
As for `O=C1NCC2(CCCCC2)n2c1cc1cnc(Nc3ccc(N4CCNCC4)cn3)nc12` [Compound Q], the “EdU incorporation into HSPCs at 12 and 24 hours compared to control” value with HSPCs (bone marrow) (150 mg/kg oral gavage) was “some reduction at 12 hours and started to return to baseline at 24 hours”. The “G1-arrest of bone marrow stem cells (HSPC)” value in the series on HSPCs (bone marrow) (oral gavage, mice) is “dose dependent, transient, and reversible G1-arrest”. In addition, the “oral bioavailability (in words)” value in series [2] (mice) is listed as “low”. This compound had a F in series [2] (mouse) of 2%. For the same compound, the half-life in series [2] (setting [3]) was 48 min. For the same compound, in series [2] (plasma, mouse), the AUC(0-inf) turned out to be 0.95 µM·h, the clearance was found to be 44 mL/min/kg and the Vd was found to be 5.2 L/kg. Further, in series [2] (setting [4]), the AUC was 0.15 µM·h, the Cmax turned out to be 160 nM and the Tmax was 30 min.
Regarding `O=C1NCC2(CCCCC2)n2c1cc1cnc(Nc3ccc(N4CCC(N5CCOCC5)CC4)cn3)nc12` [Compound U, 2′-((5-(4-morpholinopiperidin-1-yl)pyridin-2-yl)amino)-7′,8′-dihydro-6′H-spiro[cyclohexane-1,9′-pyrazino[1′,2′:1,5]pyrrolo[2,3-d]pyrimidin]-6′-one], on CDK2/CyclinE (Table 2), the IC50 was 1.46 µM. In addition, the IC50 on CDK2/CyclinE (Table 3) amounted to 1.46 µM. The IC50 at CDK2/CyclinA (Table 2) stood at 857 nM. The IC50 at CDK2/CyclinA (Table 3) was determined as 857 nM. Further, in series [2] (mouse), the F is on record as 67%. Besides, in series [2] (setting [3]), the half-life is 180 min. For the same compound, the half-life in series [2] (mouse, plasma, po, 30 mg/kg, mouse, read-out: plasma half-life following oral administration) was 180 to 300 min. Besides, the bioavailability in series [2] (mouse, plasma, po, 30 mg/kg, read-out: oral bioavailability (F (%))) lay in the range of 52 to 80%. In series [2] (plasma, mouse), the AUC(0-inf) was 0.76 µM·h, the clearance is 52 mL/min/kg and the Vd amounted to 3.4 L/kg. Further, in series [2] (setting [4]), the exposure (AUC) came out at 3.3 µM·h, the Cmax came to 4200 nM and the Tmax turned out to be 30 min.
On to `CCC(C)CN1CCN(c2ccc(Nc3ncc4cc5n(c4n3)C3(CCCC3)CNC5=O)nc2)CC1` (stereo not drawn) [FFF], for which, in series [1] (HS68 cells), a half-maximal response (EC50) required 650 nM. At CDK2/CyclinE (Table 2), the “Fold Selectivity (CDK2/CycE/CDK4)” value was found to be 966 and the IC50 is 4.54 µM. In addition, the IC50 on CDK4/CyclinD1 stood at 4.7 nM. At CDK2/CyclinA (Table 2), the “Fold Selectivity (CDK2/CycA/CDK4)” value stood at 291 and the IC50 is 1370 nM.
`CC1CN(c2ccc(Nc3ncc4cc5n(c4n3)C3(CCCC3)CNC5=O)nc2)CC(C)N1CCC(C)(C)C` (stereo not drawn) [PPP] had an EC50 in series [1] (Homo sapiens, Hs68, HS68 cells) of 275 nM. At CDK2/CyclinE (Table 2), the “Fold Selectivity (CDK2/CycE/CDK4)” value is 21263 and the IC50 worked out at 16.5 µM. In addition, at CDK4/CyclinD1, the IC50 turned out to be 0.8 nM. At CDK2/CyclinA (Table 2), the “Fold Selectivity (CDK2/CycA/CDK4)” value was 3402 and the IC50 came to 2640 nM.
Take `CCC(C)[C@@H]1CNC(=O)c2cc3cnc(Nc4ccc(N5CCN(C)CC5)cn4)nc3n21` (stereo partly drawn) [VVV]: the EC50 in series [1] (Homo sapiens, Hs68, HS68 cells) was found to be 300 nM. Moreover, on CDK2/CyclinE (Table 2), the “Fold Selectivity (CDK2/CycE/CDK4)” value was determined as 589 and the IC50 was found to be 4.38 µM. Besides, the IC50 on CDK4/CyclinD1 turned out to be 7.4 nM.
For `CC1CN(c2ccc(Nc3ncc4cc5n(c4n3)C3(CCCCC3)CNC5=O)nc2)CCN1CC(C)(C)O` (stereo not drawn) [W], the “Fold Selectivity (CDK2/CycE/CDK4)” value on CDK2/CyclinE (Table 2) was 1481. The IC50 at CDK2/CyclinE (Table 2) turned out to be 3.97 µM; at CDK4/CyclinD1, 2.7 nM; on CDK2/CyclinA (Table 2), 539 nM. The “Fold Selectivity (CDK2/CycA/CDK4)” value on CDK2/CyclinA (Table 2) was found to be 201.
The like results for `C[C@H](O)CN1CCN(c2ccc(Nc3ncc4cc5n(c4n3)C3(CCCC3)CNC5=O)nc2)C[C@H]1C` [XX] were, in that order, 5615, 7.3 µM, 1.3 nM, 6290 nM and 4838.
As for `O=C1NCC2(CCCCC2)n2c1cc1cnc(Nc3ccc(N4CCC(N5CCC(C(F)(F)F)CC5)CC4)cn3)nc12` [X], at CDK2/CyclinE (Table 2), the “Fold Selectivity (CDK2/CycE/CDK4)” value was determined as 12975 and the IC50 turned out to be 11.6 µM. At CDK4/CyclinD1, the IC50 was found to be 0.9 nM. On CDK2/CyclinA (Table 2), the “Fold Selectivity (CDK2/CycA/CDK4)” value was found to be 2058 and the IC50 is 1840 nM.
The like results for `O=C1NCC2(CCCCC2)n2c1cc1cnc(Nc3ccc(C(=O)N4CCNCC4)cn3)nc12` [Y] were, in that order, 50, 0.124 µM, 2.5 nM, 25 and 61 nM.
On the same counts, the results for `C[C@H](O)CN1[C@H](C)CN(c2ccc(Nc3ncc4cc5n(c4n3)C3(CCCCC3)CNC5=O)nc2)C[C@@H]1C` [Z] are 1174, 3.71 µM, 3.2 nM, 205 and 647 nM.
